Assay results reported in PMC8177068, “Secondary (iso)BAs cooperate with endogenous ligands to activate FXR under physiological and pathological conditions” (Biochimica et biophysica acta. Molecular basis of disease, 2021).

Columns and labels:
[1] = system: FXR target genes (Ostb, Kng1); experiment: FXR target gene mRNA/pre-mRNA expression in HepG2 cells (qRT-PCR); format: cell-based, human; conditions: 6 h
Experimental: (§1) RNA was extracted from cells or snap-frozen tissue samples (approximately 50 mg) using Trizol according to the manufacturer’s instructions and as described previously in detail. Liver samples were homogenized before extraction in a MagNA Lyser at 6500 rpm for 2 × 20 s intervals. Concentration and quality (absorbance 260/280 & […] ratios) of RNA was measured on a NanoDrop™ 2000 spectrophotometer. Isolated RNA was reverse-transcribed by using the SuperScript II cDNA synthesis enzyme according to the manufacturer’s instructions. Primers used for RT-qPCR were designed using the open-source program Primer3. Primers were designed to span exon-intron boundaries with an amplicon size of less than 150 bp. Relative changes were calculated using a standard curve and 36b4 as the reference genes.
Fig. 1.

[2] = Metabolism of isoBAs in HepG2 cells (LC-MS); format: in vitro ADME, human; conditions: 4 h
Experimental: The protocol has been published in detail previously. Briefly, internal standards were added to cells in 12-well plates and cells were lysed in methanol. The debris was pelleted, the supernatant dried and dissolved in running buffer. BAs were separated by HPLC using a C18 reversed phase or pentafluorophenyl column prior to quantification by mass spectrometry.
Having established suitable analytical methods, we focused on the metabolism of isoBAs and their 3-alpha-epimers in vitro, using conditions similar to our cell-based FXR assays. […] This may indicate that the presence of the 12-hydroxy group prevents further metabolism into 3α-BAs. It was also observed that a very small amount of 3α-OH BAs were converted to 3-keto intermediates (Fig. 2B, C).
Fig. 2. IsoBAs are metabolized into (3-keto/oxo) derivatives and are partially re-epimerized into 3-alpha hydroxy BAs. HepG2 cells were incubated with (A) isoBAs or (B) their 3-alpha-epimers for 4 h. BAs were measured on C-18 column by LC/MS. Upper panel BAs and isoBAs; lower panel keto/oxo derivatives after incubation. Chromatograms of isoBA-standards are shown in Supplementary Fig. 3A. (C) Merged chromatograms of (A) & (B). […] (*) conversion of isoBAs into 3-alpha hydroxy BAs. (m/z) mass divided by charge number.

intestinal Fgf15 = experiment: BA-enriched diet in mice: intestinal FXR target gene expression; format: in vivo, mouse; conditions: C57BL/6 J mice, 0.5% (w/w) chow diet
Experimental: as §1
Fig. 6.

hepatic Cyp7a1 = experiment: BA-enriched diet in mice: hepatic BA synthesis gene expression; format: in vivo, mouse; conditions: for Cyp7a1 levels in the liver: C57BL/6 J mice, 0.5% (w/w) chow diet
Experimental: as §1
(§2) All animals were housed with a 12-h light-dark cycle in humidity and temperature-controlled conditions and permitted ad libitum consumption of water and a standard mouse diet (Altromin 1324, Lage, Germany). All the experiments were approved by the European Directive 2010/63/EU and approved by the Austrian Federal Ministry of Education, Science and Research (Vienna, Austria; BMWFW-66.010/0124-V/3b/2018, BMWFW-66.010/0129-WF/V/3b/2016, and the Institutional Animal Care and Use Committees at Emory University and were in conformity with the Austrian/US animal law. The Ostα^−/−, Asbt^−/−, Ostα-Asbt DKO (double knockout) and Fxr^−/−mice were generated as previously described. Experiments were performed in 8–12 weeks-old mice. Mice were fed a chow diet (Altromin 1324, Lage, Germany); for BA supplementation experiments, male mice were fed 0.5% (w/w) diet of the indicated BA for the indicated time. CBDL was performed as described previously. Mice were euthanized by decapitation and tissues including liver and intestine were immediately dissected, weighed and frozen in liquid nitrogen for subsequent molecular analysis or preserved for histological analysis.
Fig. 6. Regulation of FXR target genes in vivo after treatment with unconjugated and conjugated bile acids.
Fig. 7.

[3] = biological target: T1, FXR ligand binding domain (NucleoBAS) (Homo sapiens, UniProt Q96RI1); experiment: Confocal FRET bile acid sensor (NucleoBAS) in U2OS cells; format: cell-based; conditions: NTCP-NucleoBAS cells in CFBS
T1 construct: nuclear localisation (sensor targeted to the nucleus; signal not described); expressed in transfected cells; host or cells: U2OS cells stably expressing NucleoBAS (PEI transfection, colony selection); some experiments with co-expressed NTCP-mKate2
T1 sequence (Q96RI1 262-486 limits assumed): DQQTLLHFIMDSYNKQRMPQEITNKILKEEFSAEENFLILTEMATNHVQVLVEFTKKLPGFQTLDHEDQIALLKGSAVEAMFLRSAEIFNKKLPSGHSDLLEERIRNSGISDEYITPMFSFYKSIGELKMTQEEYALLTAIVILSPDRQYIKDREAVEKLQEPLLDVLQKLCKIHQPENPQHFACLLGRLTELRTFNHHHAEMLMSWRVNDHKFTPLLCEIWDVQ
Excerpt: Fig. 3.
Fig. 4. […] Error bars represent the SEM.
(§3) (1 picture or pasted object on this page, not shown here)

FXR target genes = experiment: Single dose gavage of (iso)BAs followed by GW4064 in mice, FXR target genes; format: in vivo, mouse; conditions: 60 mg/kg BW followed by GW4064 30 mg/kg BW, 6 h
Excerpt: as §2
Fig. 5. […] Genes were analyzed 6 h after gavage; n = 3–4, values represent the mean ± SEM. *p < 0.05; #p < 0.01.
Supplementary Figure 5. […]
Genes were analyzed 6 hours after gavage; n=3-4, values […]

human ASBT = system: human ASBT; design: method as in PMID 24328955; conditions: cited from earlier work
[4] = design: method as in PMID 9126801, PMID 11352980; conditions: pilot studies; cited from earlier work
Bsep = experiment: Hepatic Bsep pre-mRNA and mRNA in animals treated with GSK2324; format: in vivo; conditions: animals treated with GSK2324, liver
Experimental: Supplementary Figure 2. (A) Hepatic expression of bile acid transport (Bsep) and BA-synthesis gene (Cyp7a1) pre-mRNA and mRNA after treatment with either vehicle or the synthetic FXR agonist GSK2324 for 30 minutes (n = 7-8), 1 hour (n = 8), or 2 hours (n = 7-8) before sacrifice; values represent the mean ± SEM. *p<0.05, #p<0.01. Effect of the synthetic FXR ligand (GW4064) and isoBAs (isoCDCA, isoDCA, isoUDCA) on mRNA (B) and pre-mRNA (C) levels of Ostb, Kng1, Shp in HepG2 cells treated over time; n=3. Values represent the mean ± SEM.
as §3

C[C@H](CCC(=O)O)[C@H]1CC[C@H]2[C@@H]3CC[C@@H]4C[C@H](O)CC[C@]4(C)[C@H]3C[C@H](O)[C@]12C [DCA, deoxycholic acid, reference compound]
induction of Ostβ and Kng1 pre-mRNAs [1]: robustly induced

C[C@H](CCC(=O)O)[C@H]1CC[C@H]2[C@@H]3[C@H](O)C[C@@H]4C[C@@H](O)CC[C@]4(C)[C@H]3C[C@H](O)[C@]12C [isoCA]
induction of Ostβ and Kng1 pre-mRNAs [1]: not
re-epimerization (conversion) into the 3α-stereoisomer [2]: did not observe re-epimerization

C[C@H](CCC(=O)O)[C@H]1CC[C@H]2[C@@H]3[C@H](O)C[C@@H]4C[C@H](O)CC[C@]4(C)[C@H]3C[C@H](O)[C@]12C [CA, cholic acid]
Fgf15 and Ibabp expression in the intestine (intestinal Fgf15): increased
induction of Ostβ and Kng1 pre-mRNAs [1]: not
Cyp7a1 levels in the liver (hepatic Cyp7a1): repressed

C[C@H](CCC(=O)O)[C@H]1CC[C@H]2[C@@H]3CC[C@@H]4C[C@@H](O)CC[C@]4(C)[C@H]3C[C@H](O)[C@]12C [isoDCA, (5β, 3β, 12α) -dihydroxy-cholan-24-oic acid]
change in FRET signal induced by GCDCA ([3]; 100 μM isoBA at t = 240 s after 10 μM GCDCA): reduced the FRET signal
induction of Ostβ and Kng1 mRNA [1]: barely induced
induction of Ostβ and Kng1 pre-mRNAs [1]: robustly induced
re-epimerization (conversion) into the 3α-stereoisomer [2]: did not observe re-epimerization

C[C@H](CCC(=O)O)[C@H]1CC[C@H]2[C@@H]3CC[C@@H]4C[C@@H](O)CC[C@]4(C)[C@H]3CC[C@]12C [isoLCA]
induction of Ostβ and Kng1 pre-mRNAs [1]: not

C[C@H](CCC(=O)O)[C@H]1CC[C@H]2[C@@H]3[C@@H](O)C[C@@H]4C[C@@H](O)CC[C@]4(C)[C@H]3CC[C@]12C [isoUDCA]
repression of Cyp7a1 in the liver compared to UDCA (FXR target genes): even better
affinity for human ASBT compared to native BAs (human ASBT): identical binding affinities
induction of Ostβ and Kng1 mRNA [1]: barely induced
induction of Ostβ and Kng1 pre-mRNAs [1]: not
re-epimerization (conversion) into the 3α-stereoisomer [2]: observed
tolerability [4]: well tolerated without any side effects

CC(CCC(=O)NCC(=O)O)C1CCC2C3C(O)CC4CC(O)CCC4(C)C3CCC12C (centres unmarked) [GCDCA, glycochenodeoxycholic acid, reference compound]
change in FRET ([3]; 10 μM GCDCA): markedly increased FRET

CC(C)c1onc(-c2c(Cl)cccc2Cl)c1COc1ccc(-c2ccc3nc(C(=O)O)ccc3c2)cc1 [GSK2324]
Bsep pre-mRNA induction over the mature Bsep mRNA (Bsep): ~ 20 fold

C[C@H](CCC(=O)O)[C@H]1CC[C@H]2[C@@H]3[C@@H](O)C[C@@H]4C[C@H](O)CC[C@]4(C)[C@H]3CC[C@]12C [UDCA, ursodeoxycholic acid]
affinity for human ASBT compared to native BAs (human ASBT): identical binding affinities
Cyp7a1 levels in the liver (hepatic Cyp7a1): repressed
effect on liver Cyp7a1 mRNA expression (hepatic Cyp7a1; CBDL mice, 0.5% (w/w) diet 7 days): inhibited
repression of Cyp7a1 mRNA levels (hepatic Cyp7a1; CBDL-Fxr KO mice): not
repression of Cyp7a1 mRNA levels (hepatic Cyp7a1; CBDL-WT mice): repress

C[C@H](CCC(=O)O)[C@H]1CC[C@H]2[C@@H]3[C@H](O)C[C@@H]4C[C@@H](O)CC[C@]4(C)[C@H]3CC[C@]12C [isoCDCA]
induction of Ostβ and Kng1 mRNA [1]: significant induction
induction of Ostβ and Kng1 pre-mRNAs [1]: robustly induced
re-epimerization (conversion) into the 3α-stereoisomer [2]: observed

C[C@H](CCC(=O)NCCS(=O)(=O)O)[C@H]1CC[C@H]2[C@@H]3[C@@H](O)C[C@@H]4C[C@H](O)CC[C@]4(C)[C@H]3CC[C@]12C [TUDCA, tauroursodeoxycholic]
expression of pre-mRNA over mRNA as compared to CA and TCA (intestinal Fgf15): more strongly enhanced

C[C@H](CCC(=O)O)[C@H]1CC[C@H]2[C@@H]3CC[C@@H]4C[C@H](O)CC[C@]4(C)[C@H]3CC[C@]12C [LCA, lithocholic acid, reference compound]
induction of Ostβ and Kng1 pre-mRNAs [1]: not
